In US20250092064A1, “BENZOTRIAZOLE COMPOUND” (DAIICHI SANKYO COMPANY, LIMITED, priority 2022, published 2025):
pIC50: −log10 of the molar value.

Columns and labels:
[1] = target: binding between Nrf2 and Keap1 (Homo sapiens (Human), UniProt Q14145); experiment: FP assay (in vitro): inhibition of Nrf2-Keap1 binding by fluorescence polarization; conditions: GST-fused human Keap1 (325-642) 20 nM, FITC-labeled Nrf2 peptide 10 nM, 2 hr at room temperature
[2] = system: NQO1 activity in Hepa1c1c7 cells; experiment: NAD(P)H: quinone oxidoreductase-1 (NQO1) enzyme induction assay (in vitro); format: cell-based, mouse; conditions: Mus musculus, Hepa-1c1c7, NQO1 activity with 400 nM test compound as a ratio from the base without compound, about 48 hr
Summary of the method: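 Mouse Hepa1c1c7 hepatoma cells treated 48 hr with 400 nM compound (final). NQO1 activity in lysates read by absorbance at 610 nm; value is background-subtracted activity ratio versus untreated cells.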

Chain of binding between Nrf2 and Keap1 (Q14145 325-624 limits assumed): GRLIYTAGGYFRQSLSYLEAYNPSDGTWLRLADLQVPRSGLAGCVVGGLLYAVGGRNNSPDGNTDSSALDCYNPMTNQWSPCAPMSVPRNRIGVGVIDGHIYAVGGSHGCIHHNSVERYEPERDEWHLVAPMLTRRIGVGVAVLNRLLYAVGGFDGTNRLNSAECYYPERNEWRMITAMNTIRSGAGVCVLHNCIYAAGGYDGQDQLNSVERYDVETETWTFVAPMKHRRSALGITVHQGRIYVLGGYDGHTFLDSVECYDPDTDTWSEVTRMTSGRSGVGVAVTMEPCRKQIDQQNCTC

| pIC50 [1] | Compound | fold induction at 0.4 µM [2] |
| --- | --- | --- |
| ≥ 8.00 | CC[C@@H]1CN(Cc2cc([C@H](CC(=O)O)c3cc(Cl)c4c(nnn4C)c3C)cc3ccsc23)[C@@H](C)c2ncccc2O1 [Example 64, (3S)-3-(7-Chloro-1,4-dimethyl-1H-benzotriazol-5-yl)-3-(7-{[(2R,5S)-2-ethyl-5-methyl-2,3-dihydropyrido[2,3-f][1,4]oxazepin-4(5H)-yl]methyl}-1-benzothiophen-5-yl)propanoic acid] | 3 to 5 |
| 7.52 to 8.00 | CC[C@@H]1CN(Cc2cc([C@@H](CC(=O)O)c3ccc4c(nnn4C)c3C)cc3c2CCC3)[C@@H](C)c2ncccc2O1 [Example 65, (3R)-3-(1,4-Dimethyl-1H-benzotriazol-5-yl)-3-(7-{[(2R,5S)-2-ethyl-5-methyl-2,3-dihydropyrido[2,3-f][1,4]oxazepin-4(5H)-yl]methyl}-2,3-dihydro-1H-inden-5-yl)propanoic acid] | > 5 |
| 7.52 to 8.00 | CC[C@@H]1CN(Cc2cc([C@H](CC(=O)O)c3ccc4c(nnn4C)c3C)cc3c2CCC3)[C@@H](C)c2ncccc2O1 [Example 66, (3S)-3-(1,4-Dimethyl-1H-benzotriazol-5-yl)-3-(7-{[(2R,5S)-2-ethyl-5-methyl-2,3-dihydropyrido[2,3-f][1,4]oxazepin-4(5H)-yl]methyl}-2,3-dihydro-1H-inden-5-yl)propanoic acid] | > 5 |
| ≥ 8.00 | CC[C@@H]1CN(Cc2cc([C@@H](CC(=O)O)c3cc(C)c4c(nnn4C)c3C)cc3ccsc23)[C@@H](C)c2ncccc2O1 [Example 67, (3R)-3-(7-{[(2R,5S)-2-Ethyl-5-methyl-2,3-dihydropyrido[2,3-f][1,4]oxazepin-4(5H)-yl]methyl}-1-benzothiophen-5-yl)-3-(1,4,7-trimethyl-1H-benzotriazol-5-yl)propanoic acid] | > 5 |
| ≥ 8.00 | CC[C@@H]1CN(Cc2cc([C@H](CC(=O)O)c3cc(C)c4c(nnn4C)c3C)cc3ccsc23)[C@@H](C)c2ncccc2O1 [Example 68, (3S)-3-(7-{[(2R,5S)-2-Ethyl-5-methyl-2,3-dihydropyrido[2,3-f][1,4]oxazepin-4(5H)-yl]methyl}-1-benzothiophen-5-yl)-3-(1,4,7-trimethyl-1H-benzotriazol-5-yl)propanoic acid] | > 5 |
| ≥ 8.00 | CC[C@@H]1CN(Cc2cc([C@H](CC(=O)O)c3cc(C)c4c(nnn4C)c3C)cc3c2CCC3)[C@@H](C)c2ncccc2O1 [Example 69, (3S)-3-(7-{[(2R,5S)-2-Ethyl-5-methyl-2,3-dihydropyrido[2,3-f][1,4]oxazepin-4(5H)-yl]methyl}-2,3-dihydro-1H-inden-5-yl)-3-(1,4,7-trimethyl-1H-benzotriazol-5-yl)propanoic acid] | 3 to 5 |
| 7.00 to 7.52 | CC[C@@H]1CN(Cc2cc([C@@H](CC(=O)O)c3cc(Cl)c4c(nnn4C)c3C)cc3ccsc23)[C@@H](C)c2ncccc2O1 [Example 70, (3R)-3-(7-Chloro-1,4-dimethyl-1H-benzotriazol-5-yl)-3-(7-{[(2R,5S)-2-ethyl-5-methyl-2,3-dihydropyrido[2,3-f][1,4]oxazepin-4(5H)-yl]methyl}-1-benzothiophen-5-yl)propanoic acid] | 3 to 5 |
| 7.00 to 7.52 | CC[C@@H]1CN(Cc2cc(C(CC(=O)O)c3ccc4c(nnn4C)c3C)cc3ccsc23)[C@H](C)c2ncccc2O1 (stereo partly drawn) [Example 73, 3-(1,4-Dimethyl-1H-benzotriazol-5-yl)-3-(7-{[(2R,5R)-2-ethyl-5-methyl-2,3-dihydropyrido[2,3-f][1,4]oxazepin-4(5H)-yl]methyl}-1-benzothiophen-5-yl)propanoic acid] | > 5 |
| ≥ 8.00 | CC[C@@H]1CN(Cc2cc([C@H](CC(=O)O)c3ccc4c(nnn4C)c3Cl)cc3ccsc23)[C@@H](C)c2ncccc2O1 [Example 74, (3S)-3-(4-Chloro-1-methyl-1H-benzotriazol-5-yl)-3-(7-{[(2R,5S)-2-ethyl-5-methyl-2,3-dihydropyrido[2,3-f][1,4]oxazepin-4(5H)-yl]methyl}-1-benzothiophen-5-yl)propanoic acid] | > 5 |
| ≥ 8.00 | CC[C@@H]1CN(Cc2cc([C@@H](CC(=O)O)c3ccc4c(nnn4C)c3Cl)cc3ccsc23)[C@@H](C)c2ncccc2O1 [Example 75, (3R)-3-(4-Chloro-1-methyl-1H-benzotriazol-5-yl)-3-(7-{[(2R,5S)-2-ethyl-5-methyl-2,3-dihydropyrido[2,3-f][1,4]oxazepin-4(5H)-yl]methyl}-1-benzothiophen-5-yl)propanoic acid] | > 5 |
| 7.52 to 8.00 | Cc1c([C@@H](CC(=O)O)c2cc(CN3C[C@@H](C)Oc4ccc(O)nc4[C@@H]3C)c3sccc3c2)ccc2c1nnn2C [Example 80, (3S)-3-(1,4-Dimethyl-1H-benzotriazol-5-yl)-3-(7-{[(2R,5S)-7-hydroxy-2,5-dimethyl-2,3-dihydropyrido[2,3-f][1,4]oxazepin-4(5H)-yl]methyl}-1-benzothiophen-5-yl)propanoic acid] | > 5 |
| 7.52 to 8.00 | Cc1c([C@H](CC(=O)O)c2cc(CN3C[C@@H](C)Oc4ccc(O)nc4[C@@H]3C)c3sccc3c2)ccc2c1nnn2C [Example 82, (3R)-3-(1,4-Dimethyl-1H-benzotriazol-5-yl)-3-(7-{[(2R,5S)-7-hydroxy-2,5-dimethyl-2,3-dihydropyrido[2,3-f][1,4]oxazepin-4(5H)-yl]methyl}-1-benzothiophen-5-yl)propanoic acid] | > 5 |
| ≥ 8.00 | CC[C@@H]1CN(Cc2cc([C@@H](c3ccc4c(nnn4C)c3C)C(C)(C)C(=O)O)cc3c2CCC3)[C@@H](C)c2ncccc2O1 [Example 89, (3S)-3-(1,4-Dimethyl-1H-benzotriazol-5-yl)-3-(7-{[(2R,5S)-2-ethyl-5-methyl-2,3-dihydropyrido[2,3-f][1,4]oxazepin-4(5H)-yl]methyl}-2,3-dihydro-1H-inden-5-yl)-2,2-dimethylpropanoic acid] | > 5 |
| 7.52 to 8.00 | Cc1c(C(CC(=O)O)c2cc(CN3C[C@@H](C)Oc4ccccc4S3(=O)=O)c3cc[nH]c3c2)ccc2c1nnn2C (stereo partly drawn) [Example 90, 3-(1,4-Dimethyl-1H-benzotriazol-5-yl)-3-(4-{[(4R)-4-methyl-1,1-dioxido-3,4-dihydro-2H-5,1,2-benzoxathiazepin-2-yl]methyl}-1H-indol-6-yl)propanoic acid] | > 5 |
| 7.52 to 8.00 | CC[C@@H]1CN(Cc2cc(C(CC(=O)O)c3ccc4c(nnn4C)c3C)cc3c2OCC3)S(=O)(=O)c2cc(Cl)cnc2O1 (stereo partly drawn) [Example 91, 3-(7-{[(4R)-8-Chloro-4-ethyl-1,1-dioxido-3,4-dihydro-2H-pyrido[2,3-b][1,4,5]oxathiazepin-2-yl]methyl}-2,3-dihydro-1-benzofuran-5-yl)-3-(1,4-dimethyl-1H-benzotriazol-5-yl)propanoic acid] | > 5 |
| 7.52 to 8.00 | CC[C@@H]1CN(Cc2cc(C(CC(=O)O)c3ccc4c(nnn4C)c3Cl)cc3ccoc23)S(=O)(=O)c2cc(Cl)cnc2O1 (stereo partly drawn) [Example 92, 3-(7-{[(4R)-8-Chloro-4-ethyl-1,1-dioxido-3,4-dihydro-2H-pyrido[2,3-b][1,4,5]oxathiazepin-2-yl]methyl}-1-benzofuran-5-yl)-3-(4-chloro-1-methyl-1H-benzotriazol-5-yl)propanoic acid] | > 5 |
| ≥ 8.00 | C[C@@H]1CN(Cc2cc(C(CC(=O)O)c3ccc4c(nnn4C)c3Cl)cc3c2CCC3)S(=O)(=O)c2ccccc2O1 (stereo partly drawn) [Example 95, 3-(4-Chloro-1-methyl-1H-benzotriazol-5-yl)-3-(7-{[(4R)-4-methyl-1,1-dioxido-3,4-dihydro-2H-5,1,2-benzoxathiazepin-2-yl]methyl}-2,3-dihydro-1H-inden-5-yl)propanoic acid] | > 5 |
| ≥ 8.00 | CC[C@@H]1CN(Cc2cc([C@H](CC(=O)O)c3cc(Cl)c4c(nnn4C)c3C)cc3c2CCC3)S(=O)(=O)c2cc(Cl)cnc2O1 [Example 96, (3S)-3-(7-Chloro-1,4-dimethyl-1H-benzotriazol-5-yl)-3-(7-{[(4R)-8-chloro-4-ethyl-1,1-dioxido-3,4-dihydro-2H-pyrido[2,3-b][1,4,5]oxathiazepin-2-yl]methyl}-2,3-dihydro-1H-inden-5-yl)propanoic acid] | > 5 |
| ≥ 8.00 | CC[C@@H]1CN(Cc2cc([C@@H](CC(=O)O)c3cc(Cl)c4c(nnn4C)c3C)cc3c2CCC3)S(=O)(=O)c2cc(Cl)cnc2O1 [Example 97, (3R)-3-(7-Chloro-1,4-dimethyl-1H-benzotriazol-5-yl)-3-(7-{[(4R)-8-chloro-4-ethyl-1,1-dioxido-3,4-dihydro-2H-pyrido[2,3-b][1,4,5]oxathiazepin-2-yl]methyl}-2,3-dihydro-1H-inden-5-yl)propanoic acid] | > 5 |
| ≥ 8.00 | CC[C@@H]1CN(Cc2cc([C@@H](CC(=O)O)c3cc(OC(F)F)c4c(nnn4C)c3C)cc3c2CCC3)S(=O)(=O)c2cc(Cl)cnc2O1 [Example 98, (3R)-3-(7-{[(4R)-8-Chloro-4-ethyl-1,1-dioxido-3,4-dihydro-2H-pyrido[2,3-b][1,4,5]oxathiazepin-2-yl]methyl}-2,3-dihydro-1H-inden-5-yl)-3-[7-(difluoromethoxy)-1,4-dimethyl-1H-benzotriazol-5-yl]propanoic acid] | > 5 |
| ≥ 8.00 | CC[C@@H]1CN(Cc2cc([C@H](CC(=O)O)c3cc(OC(F)F)c4c(nnn4C)c3C)cc3c2CCC3)S(=O)(=O)c2cc(Cl)cnc2O1 [Example 99, (3S)-3-(7-{[(4R)-8-Chloro-4-ethyl-1,1-dioxido-3,4-dihydro-2H-pyrido[2,3-b][1,4,5]oxathiazepin-2-yl]methyl}-2,3-dihydro-1H-inden-5-yl)-3-[7-(difluoromethoxy)-1,4-dimethyl-1H-benzotriazol-5-yl]propanoic acid] | > 5 |
